Experiment: Quantitative metabolite radioprofiling in pooled plasma, urine and stool (UHPLC-FC / HRMS)
Assay type: in vivo, human
Conditions: pooled 0–168 h stool
Description: The plasma sample (15 mL) after pooled was added 15 mL methanol and 15 mL acetonitrile and centrifugation (3,500 rpm, 10 min, 4°C). Extract the centrifuged solid with 7.5 mL water and 22.5 mL methanol acetonitrile (50:50, v: v). The first two extracted supernatants were combined and concentrated. The concentration of the substance is at 200 μL Acetonitrile water (20:80, v: v) was dissolved again and centrifuged again (3,600 rpm, 10 min, 4°C). Part of the supernatant was injected into the UHPLC-FC (Fraction collector) system (Thermo). The eluent from the UHPLC was collected into the Deepwell LumaPlate 96 (PerkinElmer) at the rate of 10 s per well within minutes. The total collection time is 35 min. The plates were dried by Integrated SpeedVac (Thermo), and the radiation value of each well were detected by a microplate reader (Sense Beta Hidex, Finland). Data were reconstructed to radio-chromatogram by Laura software (Lablogic, United Kingdom) to give the radio profiling of plasma.
The combined samples were centrifuged, concentrated by N2 and dissolved in a 200 μL mixture of 40 mL acetonitrile and 160 mL-water, and 120 μL was injected into the UHPLC-FC system (Thermo). Other operation steps are the same as those of plasma.
Add 6 mL methanol acetonitrile (50:50, v: v) to the combined fecal homogenate (2 g) sample. The mixture was then whirled (1 min) and centrifuged6 (3,500 rpm, 10 min, 4°C). […]

abundance in stool (in words): minor metabolites
SMILES: CC(=O)c1c(C)c2cnc(Nc3ccc(C(CCN)CCO)cn3)nc2n(C2CCCC2)c1=O (stereo not shown) [M464-2]
